Values belong to the compound of their own block, whether it stands above or below them.
Assays:
[1] = test system: sulfenic acids in 293T cell lysates; assay: Dimedone-alkyne detection of sulfenic acids in lysates; type: biochemical, human
Method: FIG. 12. Sulfenic acids are eliminated by ascorbate reduction or denaturing buffers. Lysates were labeled for 1 hour with 1 mM dimedone-alkyne, and precipitated with chloroform:methanol. The protein fraction was sonicated in PBS and diluted to 1 mg/mL, and incubated with 20 μM TAMRA-azide, 1 mM CuSO4, and 100 μM Tris[(1-benzyl-1H-1,2,3-triazol-4-yl)methyl]amine (TBTA) for 1 hour, boiled in reducing loading buffer, and separated by SDS-PAGE. After transfer and Cy5-streptavidin binding, the gel was visualized using a GE Typhoon fluorescence scanner. […] Pre-treatment with sodium ascorbate (20 mM) for 30 minutes efficiently reduces sulfenic acids. […] Furthermore, ascorbate reduces sulfenic acids, and confirms non-selective enrichment of an additional cysteine oxidative modification by the biotin-switch method.

Recombinant human GAPDH = target: T1, Recombinant human GAPDH (Homo sapiens, UniProt P04406); assay: Labeling of recombinant GAPDH (in-gel fluorescence, LC-MS); type: biochemical
T1 construct: 6His; made in house; host or cells: E. coli BL21
Method: FIG. 14. Profiling fluorescein-SO2H reactivity and selectivity on S-nitrosylated GAPDH. Recombinant human GAPDH was resuspended in 6 M urea/PBS, treated with 50 mM iodoacetamide for 30 minutes, and mixed with dimedone, ascorbate, peroxide or NO donor (5 minutes). Fluorescein-SO2H (500 μM) was then added to the GAPDH sample for 45 minutes. S-nitrosylated human GAPDH labeling increases upon incubation with the NO donor MAHMA-NONOate, and decreases following treatment with ascorbate. […] Fluorescein-SO2H labeling is unaffected by pre-incubation with peroxide or dimedone.
FIG. 15. Biotin-SO2H reacts with human GAPDH and forms a thiosulfonate. Recombinant human GADPH was labeled with biotin-SO2H for site-specific analysis of S-nitrosylation by high-resolution mass spectrometry.
Given the efficient and selective conjugation of sulfinic acids and nitrosothiols, recombinant human GAPDH were next purified for targeted analysis of S-sulfinylation with biotin-SO2H. […] Biotin-SO2H-labeled GAPDH protein was digested with trypsin and analyzed by high-resolution mass spectrometry, identifying a biotin-thiosulfonate modified peptide encompassing the GAPDH catalytic cysteine (FIG. 15). […] These studies confirm direct detection of native of S-sulfinylation by sulfinic acid probes for mass spectrometry analysis.
Purified human GAPDH was diluted to 0.2 mg/mL in phosphate buffered saline (pH 7.3), and treated with 20 mM iodoacetamide for 30 minutes. Next, the sample was treated with 100 μM biotin-SO2H. Purified human DJ-1 was diluted to 0.2 mg/mL in PBS, and incubated with 20 mM iodoacetamide to alkylated free thiols. Next, the sample was treated with 2 mM hydrogen peroxide for 20 minutes to promote Cys106 sulfinic acid formation. […] Eluted peptides were analyzed using a Waters Synapt G2-S HDMS time-of-flight mass spectrometer in positive mode. […] MS data was searched using Waters Protein Lynx Global Server v3.0 using the exact mass calculated for the cysteine thiosulfonate modification.

[2] = test system: S-nitrosylated proteins in mammalian cell lysates; assay: Gel-based labeling of endogenous S-nitrosylated proteins in cell lysates; type: biochemical, human; conditions: lysates denatured, alkylated with iodoacetamide; streptavidin detection
Method: FIG. 8. Dose-dependent labeling of S-nitrosylated proteins by biotin-SO2H. 293T and PANC1 cells were lysed in 6 M urea/PBS and alkylated with 50 mM iodoacetamide for 30 minutes, followed by incubation with increasing concentrations of biotin-SO2H for 45 minutes.
Next, the reactivity of sulfinic acids with native S-nitrosylated proteins was examined. Biotin and fluorescein N-hydroxysuccinimide (NHS) esters were directly coupled to the biological sulfinic acid metabolite hypotaurine (biotin-SO2H) or the sulfonic acid metabolite taurine (biotin-SO3H). Each probe was incubated with mammalian cell lysates pre-alkylated with excess iodoacetamide (FIG. 1b) in 6 M urea/phosphate buffered saline (PBS), and separated by non-reducing SDS-PAGE for transfer to nitrocellulose and streptavidin detection. […]
Cells and lysates were protected from light and kept on ice throughout the labeling protocol, except when noted. […] Lysate protein concentrations were quantified using the Bio-Rad DC assay, and diluted 3 mg/mL in 6 M urea/PBS. […] For in-gel fluorescence analysis, samples were loaded without boiling using non-reducing SDS-PAGE loading buffer for SDS-PAGE separation. […] In-gel fluorescence and streptavidin blots were analyzed using a GE typhoon scanner at appropriate wavelengths (488/526 for fluorescein and 633/670 for Cy5-Streptavidin).

[3] = HPLC cross-reactivity assay of phenylsulfinic acid; type: physicochemical
Method: FIG. 3. […] A 10 mM solution of phenylsulfinic acid was allowed to react with a 20 mM solution of iodoacetamide in potassium phosphate buffer pH 7.4 for 5 hours. After 5 hours, the reaction mixture was injected on an HPLC and separated using gradient elution (5% ACN to 95% ACN over 15 minutes). Absence of additional peaks (over 202-798 nm, monitored on a PDA detector) was interpreted as no reaction between the sulfinic acid and iodoacetamide.
A 2 mM solution of phenylsulfinic acid was allowed to stand with 20 mM solutions of N-acetyl-cysteine-methyl ester, benzaldehyde, cystine dimethyl ester, and 5,5′-dithiobis-(2-nitrobenzoic acid) in phosphate buffer pH 7.4 for 5 hours. The reaction mixtures were injected on an HPLC and analyzed using gradient elution (5% ACN to 95% ACN over 15 minutes). Peaks beyond minute 8.6 in (a) are contaminants present in the commercial cysteine sample (Sigma-Aldrich).
Cross-reactivity was determined by allowing components to react for 4 hours. HPLC analysis (every 30 minutes) was used to monitor reactions. Reduction in peak intensity of initial components and the appearance of new peak was termed as a positive reaction. Partial reaction indicates incomplete reaction.

[4] = Rate constant determination: loss of GSNO absorbance after phenylsulfinic acid addition; type: physicochemical
Method: FIG. 6A-B. GSNO is consumed by increasing concentrations of sodium phenylsulfinate. (a) A 2 mM solution of S-nitrosoglutathione (GSNO, Cayman) was treated with increasing concentrations of phenylsulfinic acid, and the absorbance of GSNO was monitored over a period of 90 minutes at 340 nm using a plate reader in varying pH buffers. (b) Calculation of rate constants at differing pH values. At pH 7, the rate becomes more hyperpbolic.
Thiosulfonate formation was further characterized by measuring the loss of S-nitroso-glutathione (GSNO) absorbance after phenylsulfinic acid addition (FIG. 6). At pH 1 and 4, the reaction rate is first order and proceeds at 3×10^−5 M·sec^−1. […]
S-nitrosoglutathione (GSNO, Cayman) and sodium phenylsulfinate (Sigma-Aldrich) were used for rate-determination studies at four pH values: pH 1.0 (0.2 N HCl/KCl buffer), pH 4.0 (0.1 M Sodium acetate/Acetic Acid buffer), pH 7.0 (0.1 M potassium phosphate buffer) and pH 10.0 (0.1 M Sodium bicarbonate/Sodium hydroxide buffer). The purity of S-nitrosoglutathione was calculated as 94±1.3% by absorbance at 334 nm using the molar extinction coefficient of 900 M^−1 cm^−1. Assays were performed using a plate reader (Tecan Infinite F500) monitoring absorbance of 2 mM GSNO at 340 nm over a course of 90 minutes in the presence of varying concentrations of sodium phenylsulfinate. […]

[5] = HPLC assay of thiosulfonate reduction by TCEP or ascorbate; type: physicochemical
Method: FIG. 5A-B. The thiosulfonate product is reduced by TCEP, but not ascorbate. A 0.5 mM solution of the thiosulfonate product was incubated with 2.5 mM TCEP or 2.5 mM sodium ascorbate in phosphate buffer (pH 7.4) in the dark at room temperature. After 5 minutes and 60 minutes, an aliquot injected for HPLC analysis and separated using gradient elution (5% ACN to 95% ACN over 15 minutes).

T1 sequence (P04406 whole entry): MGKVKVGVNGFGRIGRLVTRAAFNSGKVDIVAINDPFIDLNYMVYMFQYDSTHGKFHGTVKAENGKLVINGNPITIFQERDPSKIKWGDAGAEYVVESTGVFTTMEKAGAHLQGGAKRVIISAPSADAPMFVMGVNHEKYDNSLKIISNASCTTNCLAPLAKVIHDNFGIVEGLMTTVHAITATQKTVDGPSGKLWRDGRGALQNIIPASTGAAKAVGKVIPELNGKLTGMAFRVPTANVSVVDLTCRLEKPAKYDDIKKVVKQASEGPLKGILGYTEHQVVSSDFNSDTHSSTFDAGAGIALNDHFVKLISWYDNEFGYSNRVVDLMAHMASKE

Compound: C#CCCCC1CC(=O)CC(=O)C1 [Dimedone alkyne, 5-(pent-4-yn-1-yl)cyclohexane-1,3-dione]
detection of sulfenic acids ([1]; 1 mM, 1 hour, PBS): most efficient in PBS
dimedone labeling ([1]; lysate denatured in 6 M urea/PBS): nearly completely eliminated

Compound: O=C(CCCC[C@@H]1SC[C@@H]2NC(=O)N[C@@H]21)NCCS(=O)(=O)O [biotin-SO3H, 2-(5-((3aS,4S,6aR)-2-oxohexahydro-1H-thieno[3,4-d]imidazol-4-yl)pentanamido)ethanesulfonic Acid]
labeling of mammalian proteins [2]: unreactive

More lines, main results first:

GAPDH labeling after pre-incubation with peroxide or dimedone (Recombinant human GAPDH; 500 μM probe, 45 minutes): unaffected
Compound: O=C(NCCS(=O)O)c1ccc(-c2c3ccc(=O)cc-3oc3cc(O)ccc23)c(C(=O)O)c1 [Fluorescein-SO2H, 2-(6-hydroxy-3-oxo-3H-xanthen-9-yl)-5-((2-sulfinoethyl)carbamoyl)benzoic Acid]

labeling of GAPDH (Recombinant human GAPDH; 6 M urea/PBS, 50 mM iodoacetamide, probe 45 minutes): does not label GAPDH
Compound: O=C(NCCS(=O)(=O)O)c1ccc(-c2c3ccc(=O)cc-3oc3cc(O)ccc23)c(C(=O)O)c1 [fluorescein-SO3H, 2-(6-hydroxy-3-oxo-3H-xanthen-9-yl)-5-((2-sulfoethyl)carbamoyl)benzoic Acid]

reaction with thiols, disulfides, or aldehydes ([3]; 2 mM with 20 mM N-acetyl-cysteine-methyl ester, benzaldehyde, cystine dimethyl ester, DTNB, phosphate buffer pH 7.4, 5 hours): do not react
reaction with iodoacetamide ([3]; 10 mM with 20 mM iodoacetamide, potassium phosphate buffer pH 7.4, 5 hours): no reaction
Compound: O=S(O)c1ccccc1 [phenylsulfinic acid]
reaction with GSNO ([4]; basic conditions): no reaction occurs
reaction rate of thiosulfonate formation with GSNO ([4]; pH 1 and 4, first order): 3e-05 M/s

cleavage of thiosulfonate bond by TCEP ([5]; 0.5 mM with 2.5 mM TCEP, phosphate buffer pH 7.4, room temperature): immediately cleaves
cleavage of thiosulfonate bond by ascorbate ([5]; 0.5 mM with 2.5 mM sodium ascorbate, pH 7.4, 60 minutes): does not
Compound: COC(=O)[C@H](CSS(=O)(=O)c1ccccc1)NC(C)=O [thiosulfonate product, (R)-methyl 2-acetamido-3-((phenylsulfonyl)thio)propanoate]
